Molecules are shown by their SMILES. Counter-ions that a name gives are not always drawn.

The IC50 is the midpoint of a concentration-inhibition curve. Low readings indicate greater potency in that assay, high ones weaker potency in that assay.

The target in the first assay is cGMP-PDE (Homo sapiens, UniProt O76074). The experiment in a line: Inhibitory effect on cGMP-PDE. The format is biochemical. The note with it: PDE IC isolated from human platelets; 3H-cGMP substrate 0.2 mM; pH 8.0; DMSO 2.5%.
Protocol: Typically, connective tissue and adventitia were removed and 1-2 units of platelets were suspended in 10 volumes of buffer A (20 mM Tris-HCl, pH 7.5, containing 2 mM magnesium acetate, 1 mM dithiothreitol, and 5 mM Na2EDTA) using a Brinkman polytron. The proteinase inhibitors leupeptin, pepstatin A, and phenylmethyl-sulfonyl fluoride (PMSF) were also included in this buffer (final concentration of 100 nM each). The homogenate was centrifuged at 100,000g for 60 minutes. The supernatant was then removed and filtered through four layers of cheesecloth. The supernatant was applied to a DWAE-Trisacryl M column. The column was washed with several bed volumes of buffer B (20 mM Tris-HCl, pH 7.5, containing 2 mM magnesium acetate, 1 mM dithiothreitol, and proteinase inhibitors) and eluted by two successive linear NaCl gradients (0.05-0.15M, 300 ml total; 0.15-0.40M, 200 ml total). Five milliliter fractions were collected and assayed for cyclic GMP PDE activity.
The concentration of substrate (^3 H-cGMP) was 0.2 mM. Compounds of the present invention were dissolved in dimethyl sulfoxide (DMSO) at a final concentration of 2.5%. This concentration of DMSO inhibited enzyme activity by approximately 10%.
For `C#Cc1ccc2nc(-n3ccnc3)nc(NCCOC)c2c1` [Example 18, 6-ethynyl-4-(2-methoxyethyl)amino-2-(1-imidazolyl)quinazoline], the midpoint of inhibition, the IC50, lay at 46 nM.
As for `c1ccc(CNc2nc(Cn3ccnc3)nc3ccccc23)cc1` [6(b), 4-phenylmethylamino-2-((1-imidazolyl)methyl)quinazoline dihydrochloride], the concentration for half-maximal inhibition (IC50) came to 300 nM.
The same measure, in the same setting: under `C(=C\c1nc(NCc2ccccc2)c2ccccc2n1)/c1cccnc1` [Example 7, 4-phenylmethylamino-2-(2-(3-pyridyl)vinyl)quinazoline] stands 200 nM.
As to `CN(C)c1ccc(CNc2nc(-c3cccnc3)nc3ccccc23)cc1` [3(o), 4-(4-(N,N-dimethylamino)phenylmethyl)amino-2-(3-pyridyl)quinazoline trihydrochloride], half-maximal inhibition (IC50) was put at 2400 nM.
The compound `C#Cc1ccc2nc(-n3ccnc3)nc(NCc3ccccc3)c2c1` [18(b), 2-(1-imidazolyl)-4-phenylmethylamino-6-ethynylquinazoline dihydrochloride] registered an IC50 of 0.53 nM.
As to `CN(C)S(=O)(=O)c1ccc2nc(-n3ccnc3)nc(NCc3ccccc3)c2c1` [6(j), 6-dimethylaminosulfonyl-4-phenylmethylamino-2-(1-imidazolyl)quinazoline hydrochloride], inhibition was half-maximal at 135 nM (IC50).

A further assay has as its target T1, TXA2 synthetase (Rattus norvegicus, UniProt P49430).
T1 construct: whole blood was collected from abdominal aorta; from tissue; host or cells: freshly drawn heparinized whole blood of male Wistar rats
T1 sequence (P49430 1-533): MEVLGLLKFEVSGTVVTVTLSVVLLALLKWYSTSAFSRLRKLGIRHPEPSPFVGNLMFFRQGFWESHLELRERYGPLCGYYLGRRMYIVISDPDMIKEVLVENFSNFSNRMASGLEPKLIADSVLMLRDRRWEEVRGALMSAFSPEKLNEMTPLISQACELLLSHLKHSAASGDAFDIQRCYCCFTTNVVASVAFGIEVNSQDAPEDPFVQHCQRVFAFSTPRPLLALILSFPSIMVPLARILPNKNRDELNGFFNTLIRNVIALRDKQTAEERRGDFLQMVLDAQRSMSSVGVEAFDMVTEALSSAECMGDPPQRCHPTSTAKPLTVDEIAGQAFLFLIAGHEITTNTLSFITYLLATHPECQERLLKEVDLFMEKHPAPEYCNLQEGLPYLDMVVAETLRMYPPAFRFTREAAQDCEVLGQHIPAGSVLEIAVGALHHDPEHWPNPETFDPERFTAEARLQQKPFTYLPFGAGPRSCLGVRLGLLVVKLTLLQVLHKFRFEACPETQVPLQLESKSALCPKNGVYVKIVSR
In words: Inhibitory effect on TXA2 synthetase (TXB2 synthesis in A23187-stimulated heparinized whole blood). The following applies: 37° C, Ca ionophore A23187 30 μM, TXB2 by EIA. The format is cell-based, Male Wistar rats. The procedure:
Male Wistar rats were starved overnight. Five hundreds microliter of heparinized (10 U/mL) whole blood was collected from abdominal aorta using polyethylene syringe (needle: 22 or 26G). The blood freshly drawn from animal was preincubated with 5 μL of test compound at 37° C. Five minutes later, 2.5 μL of 6 mM of Ca ionophore A23187 (final concentration of 30 μM) was added into tube, and incubation mixture was further incubated for 15 min. The reaction was terminated by centrifugation of tubes at 12,000 rpm for 2 min. TXB2 content in the supernatant was determined by EIA as follows.
One milliliter of 0.5M glycine-HCl buffer (pH 3.2) was added to 100 μL of sample. The samples were mixed well and centrifuged at 1,700 G for 10 min at 4° C. The extracted supernatant was applied to a SEP-PAK (registered Trade Mark) C18 cartridge (Waters Assoc.). After washing with 10 mL of distilled water followed by 10 mL each of 15% ethanol and petroleum ether, the sample was eluted with 3 mL of ethyl acetate. The ethyl acetate fraction was evaporated to dryness under gentle N2 stream and the residue was dissolved in EIA buffer (final volume of 1 mL) following the addition of 300 μL of 0.01M NaHCO3 -NaOH buffer (pH 10.0). EIA for TXB2 was carried out according to a legend attached to the kit (Chyman Chemical Co., Inc.). Overall recovery of TXB^2 in this extraction procedure was 90%. […]
The compound `C#Cc1ccc2nc(-n3ccnc3)nc(NCCOC)c2c1` [Example 18, 6-ethynyl-4-(2-methoxyethyl)amino-2-(1-imidazolyl)quinazoline] displayed an IC50 of 2400 nM.

The record behind these values is patent US5436233A, “4-aminoquinazoline derivatives” (Ono Pharmaceutical Co., Ltd., priority 1993, dated 1995).
